Laboratory results published in patent US11072599B2, “Pyrazole compounds and uses thereof” (Yissum Research Development Company of the Hebrew …, priority 2017, dated 2021).

System: RKO colorectal cells
Test: Dose-response compound screen in RKO cells (Western blot, indicators of CKIα inhibition)
Type: cell-based
Details: 16 hours at 37° C., 0.167-1.5 μM or 0.11-1 μM, ImageJ, 1 = mock (DMSO)-treated cells
Method: RKO cells were incubated for 16 hours at 37° C. with indicated concentrations of the compounds, or with the vehicle (DMSO) alone (−) and analyzed by Western Blot. Shown are Western Blot signals of β-catenin and p53 stabilization and phosphorylation of H2AX (γH2AX), a marker of DNA damage.
RKO colorectal cells were incubated with serial dilutions of each of the compounds (at a concentration range of 0.167-1.5 μM or 0.11-1 μM in DMSO) for 16 hours at 37° C. Cells were washed with PBS and cell pellets were incubated with ice cold protein lysis buffer containing protease inhibitor cocktail ( 1/200; Calbiochem) and phosphatase inhibitors (20 mM p-nitrophenyl phosphate (PNPP), 20 mM β-glycerophosphate and 300 nM okadaic acid). Western blot (WB) analysis was performed by means of standard techniques. Blots were incubated with antibodies detecting β-catenin ( 1/2,500; BD Transduction), p53 (DO-1&1801 hybridoma mix; dilution of 1:20 of supernatants from each), CKIα (C-19; 1/1,000; Santa Cruz Biotechnology) and phospho-histone H2AX (S139; 1/1,000; Millipore). Secondary antibodies were HRP-linked goat anti-mouse, goat anti-rabbit and rabbit anti-goat antibodies (all 1/10,000; Jackson). Blots were developed using ECL (GE Healthcare). Signal intensities corresponding to β-catenin and p53 stabilization and phosphorylation of H2AX (γH2AX—a marker of DNA damage)-indicators of CKIα inhibition (Elyada et al., Nature […]), were analyzed by the ImageJ software. Relative signal intensities are depicted in Table 1 (see also in FIG. 1), where values of 1 correspond to signals of mock (DMSO)-treated cells.

| SMILES | H2AX phosphorylation (γH2AX, relative signal intensity) | p53 stabilization (relative signal intensity) | β-Catenin stabilization (relative signal intensity) |
| --- | --- | --- | --- |
| Cn1ncc(-c2cc(O)nc(N[C@H]3CC[C@H](N)CC3)n2)c1CC1CC1 [A108, 2-(((1r,4r)-4-aminocyclohexyl)amino)-6-(5-(cyclopropylmethyl)-1-methyl-1H-pyrazol-4-yl)pyrimidin-4-ol] | 1 | 1 | 9 |
| Cn1ncc(-c2cc(N[C@H]3CC[C@H](N)CC3)nc(N)n2)c1CC1CC1 [A107, N4-((1r,4r)-4-aminocyclohexyl)-6-(5-(cyclopropylmethyl)-1-methyl-1H-pyrazol-4-yl)pyrimidine-2,4-diamine] | 1 | 2 | 4 |
| Cn1ncc(-c2cc(N[C@H]3CC[C@H](N)CC3)ncc2Cl)c1CC1CC1 [A104, (1r,4r)-N1-(5-chloro-4-(5-(cyclopropylmethyl)-1-methyl-1H-pyrazol-4-yl)pyridin-2-yl)cyclohexane-1,4-diamine] | 20 | 20 | 9 |
| Cn1ncc(-c2cccc(N[C@H]3CC[C@H](N)CC3)n2)c1CC1CC1 [A105, (1r,4r)-N1-(6-(5-(cyclopropylmethyl)-1-methyl-1H-pyrazol-4-yl)pyridin-2-yl)cyclohexane-1,4-diamine] | 1 | 2 | 5 |
| Cc1ccnn1[C@H]1CC[C@H](Nc2ncc(Cl)c(-c3cnn(C)c3CC3CC3)n2)CC1 [A102] | 1 | 1 | 4 |
| Cn1ncc(-c2cc(N[C@H]3CC[C@H](N)CC3)ncn2)c1CC1CC1 [A106, (1r,4r)-N1-(6-(5-(cyclopropylmethyl)-1-methyl-1H-pyrazol-4-yl)pyrimidin-4-yl)cyclohexane-1,4-diamine] | 1 | 1 | 9 |
